Assay [1] relates to Synechocystis γ-tocopherol methyltransferase (SLR0089). Put plainly: γ-TMT assay with Synechocystis SLR0089 protein expressed in E. coli. It counts as biochemical, Synechocystis PCC6803. As to conditions: for use as substrate (methylation) by Synechocystis γ-TMT: 5 mM substrate, pH 7.5, 14C-methyl-SAM, 30 minutes room temperature. How it is done:
(§1) The p011698-1 and p011898-1 constructs were used to transform the E. coli T7 expression host BL21(DE3). To generate protein for γ-TMT assays, one liter cultures of transformed host cells containing one of the constructs were grown in Luria broth containing 100 mg/liter ampicillin. Each culture was started at an optical density at 600 nm (OD600) of 0.1 and incubated in a shaking incubator at 28° C. until the culture reached an OD600 of 0.6, at which time isopropyl-, β-D-thiogalactopyranoside (IPTG) was added to each culture to obtain a final concentration of 0.4 mM IPTG. Each culture was incubated for an additional 3 hours at 28° C. and the cells were harvested by centrifugation at 8,000 g. The cell pellets were then resupended in 10 ml of 10 mM HEPES (pH 7.8), 5 mM DTT, 0.24 M sorbitol, 1 mM PMSF. The cells were lysed by sonication with a micro-tip sonicator using four 10-second pulses. Triton×100 was added to each homogenate to a final concentration of 1%. The homogenates were incubated on ice for 30 minutes, and subjected to centrifugation at 30,000 g for 30 minutes at 4° C. The supernatants of these extracts were assayed for γ-tocopherol methyltransferase activity as follows.
(§2) The γ-TMT assays were performed in 250 μl volumes containing 50 mM Tris (pH 7.5 for the Synechocystis and pH 8.5 for the Arabidopsis enzyme), 5 mM DTT, 5 mM γ- or δ-tocopherol, and 0.025 μCi (55 μCi/mmole) (^14C-methyl)-S-adenosylmethionine. Reaction mixtures were incubated at room temperature for 30 minutes. The reactions were stopped by adding of 1 ml of 2:1 (v:v) CHCl3: methanol containing 1 mg/ml butylated hydroxytolulene (BHT) and 250 μl of 0.9% NaCl in water, and vortexing. The samples were centrifuged to separate the phases. The CHCl3 (lower) phase was transferred to a fresh tube containing […] of α-tocopherol and the CHCl3 was then removed under vacuum in a speed-vac. The dried lipid fraction was resuspended in 50 μl ethyl acetate containing 1 mg/ml BHT. The lipid extracts were fractionated on silica 60 TLC plates in dichloromethane. Tocopherols were then identified by co-migration with authentic tocopherol standards after staining the plate with Emmerie-Engels solution (0.1% FeCl3, 0.25% 2,2′-dipyridyl in ethanol). The band corresponding to α-tocopherol was scraped from the TLC plate and the amount of radioactive material present was determined by scintillation counting.
(§3) The Synechocystis and Arabidopsis γ-tocopherol methyltransferases were tested for activity using several different methyl-substituted tocopherol substrates. […] The two enzymes were unable to use tocol, 5,7-diemethyltocol, β-tocopherol, and γ-tocotrienol as substrates. […] The Synechocystis and Arabidopsis γ-TMTs appear to require substrates with a methyl-group present on the 8 position of the chromanol ring and a fully saturated prenyl-tail for activity.

Assay [2] has as its target T1, Arabidopsis γ-tocopherol methyltransferase (165H5T7) (Arabidopsis thaliana, UniProt Q9ZSK1).
T1 construct: made in house; host or cells: E. coli BL21(DE3), pET3D vector; Triton X-100 supernatant of the lysate
T1 sequence (Q9ZSK1 51-348): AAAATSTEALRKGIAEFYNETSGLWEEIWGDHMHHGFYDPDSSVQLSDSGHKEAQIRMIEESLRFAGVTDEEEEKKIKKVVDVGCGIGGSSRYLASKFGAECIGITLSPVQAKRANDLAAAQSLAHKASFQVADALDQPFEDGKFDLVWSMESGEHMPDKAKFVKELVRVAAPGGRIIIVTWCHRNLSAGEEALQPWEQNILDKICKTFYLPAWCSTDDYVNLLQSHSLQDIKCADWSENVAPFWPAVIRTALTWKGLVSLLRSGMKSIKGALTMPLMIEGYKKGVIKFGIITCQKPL
Put plainly: γ-TMT assay with Arabidopsis 165H5T7 protein expressed in E. coli. It counts as biochemical. As to conditions: for use as substrate (methylation) by Arabidopsis γ-TMT: 5 mM substrate, pH 8.5, 14C-methyl-SAM, 30 minutes room temperature. As for the experimental part:
as §1, §2, §3

With `Cc1c(O)cc2c(c1C)O[C@](C)(CCC[C@H](C)CCC[C@H](C)CCCC(C)C)CC2` [γ-tocopherol], in assay [1], the “relative activity of Synechocystis γ-TMT toward γ- and δ-tocopherol” value was “equally active toward γ-tocopherol and δ-tocopherol”; the “use as substrate (methylation) by Synechocystis γ-TMT” value (from here on “use … by Synechocystis γ-TMT”) was “able to convert γ-tocopherol to α-tocopherol”. Moreover, in assay [2], the “relative activity of Arabidopsis γ-TMT toward γ- and δ-tocopherol” value is “greater activity with γ-tocopherol as the substrate than with the δ-tocopherol substrate”; the “use as substrate (methylation) by Arabidopsis γ-TMT” value (“use … by Arabidopsis γ-TMT” for short) is reported as “able to convert γ-tocopherol to α-tocopherol”.

With `CC(C)CCCC(C)CCCC(C)CCCC1(C)CCc2cc(O)ccc2O1` (stereo not shown) [tocol], in assay [1], the “use … by Synechocystis γ-TMT” value is given as “unable to use”. Moreover, in assay [2], the “use … by Arabidopsis γ-TMT” value is recorded as “unable to use”.

As to `Cc1cc(O)cc2c1O[C@](C)(CCC[C@H](C)CCC[C@H](C)CCCC(C)C)CC2` [δ-tocopherol], in assay [1], the “relative activity of Synechocystis γ-TMT toward γ- and δ-tocopherol” value was “equally active toward γ-tocopherol and δ-tocopherol”; the “use … by Synechocystis γ-TMT” value is “able to specifically convert δ-tocopherol to β-tocopherol”. Besides, in assay [2], the “relative activity of Arabidopsis γ-TMT toward γ- and δ-tocopherol” value is given as “greater activity with γ-tocopherol as the substrate than with the δ-tocopherol substrate”; the “use … by Arabidopsis γ-TMT” value is recorded as “able to specifically convert δ-tocopherol to β-tocopherol”.

`CC(C)=CCC/C(C)=C/CC/C(C)=C/CC[C@]1(C)CCc2cc(O)c(C)c(C)c2O1` [γ-tocotrienol]: the “use … by Synechocystis γ-TMT” value in assay [1] is “unable to use”. Besides, the “use … by Arabidopsis γ-TMT” value in assay [2] was “unable to use”.

On to `Cc1cc(O)c(C)c2c1O[C@](C)(CCC[C@H](C)CCC[C@H](C)CCCC(C)C)CC2` [β-tocopherol], for which, in assay [1], the “use … by Synechocystis γ-TMT” value is “unable to use”. Moreover, the “use … by Arabidopsis γ-TMT” value in assay [2] is recorded as “unable to use”.

With `Cc1cc2c(c(C)c1O)CCC(C)(CCCC(C)CCCC(C)CCCC(C)C)O2` (stereo not shown) [5,7-diemethyltocol], the “use … by Synechocystis γ-TMT” value in assay [1] is listed as “unable to use”. For the same compound, the “use … by Arabidopsis γ-TMT” value in assay [2] is given as “unable to use”.

Source of the values: US6642434B1, “Transgenic plants with γ-tocopherol methyltransferase” (University of Community College System of Nevada, priority 1997, dated 2003).
